Experimental data published in BindingDB's records for doi:10.1021/jm300752n (Emory University, 2012).

Test: Inhibition of P300 CH1 domain-mediated HIF1 transcriptional activity in human LN229-V6R cells assessed as reduction in luciferase activity incubated for 1 hr under normoxia followed by 24 hrs under hypoxia by reporter gene assay

IC50	SMILES
5 µM	CC(C)CN(Cc1ccc2c(c1)C=CC(C)(C)O2)S(=O)(=O)c1nccn1C
5 µM	COc1cc(CN(C(C)C)S(=O)(=O)c2ccccn2)cc2c1OC(C)(C)C=C2
5 µM	CC(C)CN(Cc1ccc2c(c1)C=CC(C)(C)O2)S(=O)(=O)c1nccs1
5 µM	CC(C)CN(Cc1ccc2c(c1)C=CC(C)(C)O2)S(=O)(=O)c1ccccn1
